# Measurements taken from US11771685B2, “Compounds for the treatment of neurological or mitochondrial diseases” (MUSC FOUNDATION FOR RESEARCH DEVELOPMENT, priority 2018, dated 2023).
# Where two headings read alike, the source gives them in different places.
# What was measured:
# [1] = tested on: PTZ-induced seizure activity in zebrafish larvae; assay: Zebrafish PTZ-induced seizure model; assay type: in vivo
# Procedure: The zebrafish PTZ-induced seizure model was used to determine the most promising compounds' in vivo efficacy. Zebrafish larvae (7 dpf) were treated with the compound for 1 hr prior to inducing seizures with PTZ. As established by previous larval zebrafish anti-seizure studies (Rahn et al., 2014; Hansen et al., 2004; Baraban et al., 2005), total distance traveled by each fish after seizure induction was measured and used as a proxy for seizure activity. Following collection of locomotor data, observation of a startle response and visual inspection for abnormal morphology confirmed that alterations in swim activity were not caused by compound toxicity.
# We induced seizures in 7 dpf zebrafish larvae by the addition of […] PTZ as originally developed by Baraban et al., 2005. In a 48-well plate, one 7-dpf zebrafish was added per well. Larvae were dosed with each compound at a sub-lethal dose 1 hr prior to PTZ treatment. Two control rows were included with each experiment—tank water only control and PTZ only. Seizures were induced by adding PTZ to wells to yield a final concentration of 10 mM. After 5 min, the plate was transferred to the Daniovision instrument (Noldus Information Technology) and the chamber light was turned on. After 2 min, MediaRecorder (Noldus) was used to record video for 15 min. A small number of videos were acquired at 25 frames per second, but the majority of data were acquired at 60 frames per second. […] Ethovision XT software (Noldus) was used to track the fish movement from the video images in order to calculate the total distance traveled over 15 min. All experimental comparisons were made between animals from the same clutch.
# Statistical analyses were performed with GraphPad Prism 6 software. For the in vitro HT22 oxytosis assay, dose-response data were fit using GraphPad Prism's log(inhibitor) vs normalized response-variable slope parameters to determine EC50 values and 95% confidence intervals. For the zebrafish locomotive anti-seizure activity data, multiple comparisons were made using a one-way analysis of variance (ANOVA) with a Kruskal-Wallis Test, followed by the Dunn's Method to determine significant differences between all pairs or between control and experimental groups using the Dunn Method for Joint Ranking. Differences were considered statistically significant when p<0.05. Data from zebrafish experiments are represented as scatter dot plots of individual measurements, with means±standard deviation indicated by bars.
# [2] = In vivo pharmacokinetics in CD-1 mice; set-up: species or system mouse; settings: for Cmax: read-out: Cmax
# Procedure: (§1) PK studies on 3 and 25 were carried out in CD-1 mice. Three males were dosed via oral gavage needle for oral administration at 20 mg/kg (10 mL/kg) or via intravenous administration at 5 mg/kg (10 mL/kg). Blood samples were taken at time intervals between 5 min and 24 hr from each animal.
# The PK studies of 1 were performed by WuXi AppTec and PK studies of 3 and 25 were performed by Touchstone Biosciences (Peng et al., 2006b; Peng et al., 2001; Peng et al., 2006a; Peng et al., 2009). Male CD-1 mice were fed a standard laboratory rodent diet and housed in individual cages on a 12 hr light and 12 hr dark cycle with room temperature maintained at 22±3° C. and relative humidity at 50±20%. Animals were typically fasted overnight before dosing, with food returned after the 6 hr blood samples were obtained. Water was provided ad libitum throughout the study. The dosing solution of each test compound was prepared in a desired oral or intravenous formulation. Three to four animals were dosed via gavage needle for oral administration at 10-20 mg/kg (10-20 mL/kg) or via tail vein injection for IV administration at 2-5 mg/kg (2-5 mL/kg). […] Fluid replacement (1.5 mL of 0.9% NaCl injection, USP) was administered subcutaneously once after the 2 hr blood sampling. Blood samples were collected in BD Microtainer tubes coated with anticoagulant, placed on ice, and within 30 min, centrifuged at 15,000 g for 5 min to obtain plasma samples. All plasma samples were stored at −70° C. until analysis.
# Plasma samples were prepared as follows. Three volumes of acetonitrile containing internal standard was added to one volume of plasma to precipitate proteins. Samples were centrifuged (3000 g for 10 min) and supernatant removed for analysis by LC-MS/MS. Calibration standards and quality controls were made by preparation of a 1 mg/mL stock solution and subsequently a series of working solutions in methanol:water (1:1, v/v) which were spiked into blank plasma to yield a series of calibration standard samples in the range of 1.0 ng/mL to 10 μg/mL and quality control samples at three concentration levels (low, middle and high). All incurred PK/PD plasma samples were treated identically to the calibration standards and quality control samples. LC-MS-MS analysis was performed utilizing multiple reaction monitoring for detection of characteristic ions for each drug candidate, additional related analytes and internal standard.
# Plasma concentrations were measured as described above to determine a concentration vs. time profile. The area under the plasma concentration vs time curve (AUC) was calculated using the linear trapezoidal method. Fitting of the data to obtain pharmacokinetic parameters was carried out using non-compartmental analysis. Key PK parameters reported following intravenous administration are as follows: terminal half-life t1/2, initial plasma concentration C0, area under the plasma concentration vs. time curve AUC, volume of distribution at steady-state Vss, total plasma clearance CLp, and mean residence time MRT. Key PK parameters reported following extravascular administration are as follows: terminal half-life t1/2, maximum plasma concentration Cmax, time to reach maximum plasma concentration tmax, area under the plasma concentration vs. time curve AUC, mean residence time MRT, and bioavailability F. All parameters are expressed for individual animals as well as mean, standard deviation, and coefficient of variation.
# [3] = Clinical observations in dosed mice; assay type: in vivo
# Procedure: as §1
# PO PK experiments were repeated for 25, with oral dosing at 20 mg/kg and 10 mL/kg of a suspension with 1% Tween 80:1% carboxymethylcellulose in water.
# Table 2 provides a summary of efficacy studies in vivo in mice, and in rat brain slices, using the 5% DMSO:95% Neobee formulation.
# [4] = intravenous, 3 and 25 at 5 mg/kg, 5 mg/kg
# [5] = male, CD-1, mouse, plasma, iv, 5 mg/kg, 3 and 25 at 5 mg/kg
# [6] = male, CD-1, mouse, plasma, po, 20 mg/kg, oral 20 mg/kg, 20% DMA-40% PEG300-40% H2O
# [7] = male, CD-1, mouse, plasma, po, 20 mg/kg, oral 20 mg/kg, suspension 1% Tween 80:1% carboxymethylcellulose in water
# [8] = oral 20 mg/kg, 20% DMA-40% PEG300-40% H2O
smiles,measurement,setting,value
"CC(C)CCOC1=CC(=O)c2ccccc2C1=O [Compound 25, 2-(Isopentyloxy)naphthalene-1,4-dione]",anti-seizure activity,"[1]; 7 dpf larvae, PTZ",decrease seizures in a zebrafish model of epilepsy in a dose-dependent manner
same,minimal effective concentration,"[1]; Danio rerio, 7 dpf larvae, 1 hr pre-treatment, 10 mM PTZ, read-out: Anti-seizure activity: lowest tested dose with significant difference vs PTZ-only group",≤ 5 µM
same,inhibition in vivo at 2.5 µM,"[1]; Danio rerio, 2.5 μM, read-out: reduction of PTZ-induced locomotor activity",45%
same,AUCinf/D,"[2]; intravenous, 5 mg/kg",242 h·(ng/mL)/(mg/kg)
same,tlast,"[2]; intravenous, 5 mg/kg",24 h
same,CL,[2]; [4],4.14 L/h/kg
same,Vss,[2]; [4],13 L/kg
same,clearance,"[2]; male, CD-1, mouse, plasma, iv, 5 mg/kg, intravenous, 3 and 25 at 5 mg/kg, read-out: CL",4.13 L/h/kg
same,Vd,"[2]; male, CD-1, mouse, plasma, iv, 5 mg/kg, intravenous, 3 and 25 at 5 mg/kg, read-out: Vss",13.2 L/kg
same,AUC(0-inf),[2]; [5],1.21 µg·h/mL
same,AUC(0-t),[2]; [5],1.2 µg·h/mL
same,MRT inf,[2]; [5],3.2 h
same,half-life,[2]; [5],4.31 h
same,AUC(0-inf),[2]; [6],11.5 µg·h/mL
same,AUC(0-t),[2]; [6],7.36 µg·h/mL
same,MRT inf,[2]; [6],7.84 h
same,Tmax,[2]; [6],0.333 h
same,half-life,[2]; [6],5.56 h
same,Cmax,[2]; [6],2.08 µg/mL
same,AUC(0-inf),[2]; [7],1.95 µg·h/mL
same,half-life,[2]; [7],3.49 h
same,Cmax,[2]; [7],0.282 µg/mL
same,bioavailability,"[2]; male, CD-1, mouse, plasma, po, 20 mg/kg, oral 20 mg/kg, suspension 1% Tween 80:1% carboxymethylcellulose in water, read-out: oral bioavailability (F)",40.3%
same,concentration at 24 hr,"[2]; male, CD-1, mouse, plasma, intravenous, 5 mg/kg, read-out: Clast",0.00226 µg/mL
same,C0,"[2]; male, CD-1, mouse, plasma, intravenous, 3 and 25 at 5 mg/kg",1.6 µg/mL
same,concentration at 8 hr,"[2]; male, CD-1, mouse, plasma, oral 20 mg/kg, 20% DMA-40% PEG300-40% H2O, 8 hr post-dose, read-out: Clast",0.531 µg/mL
same,"decrease of Cmax and AUC, suspension vs solution formulation",[2]; oral 20 mg/kg,6-7 fold
same,AUCinf/D,[2]; [8],576 h·(ng/mL)/(mg/kg)
same,Cmax/D,[2]; [8],104 (ng/mL)/(mg/kg)
same,tlast,[2]; [8],8 h
same,T1/2,"[2]; oral 20 mg/kg, 20% DMA-40% PEG300-40% H2O, 20 mg/kg",5.6 h
same,oral bioavailability (F),"[2]; oral 20 mg/kg, suspension 1% Tween 80:1% carboxymethylcellulose in water, 20 mg/kg",40%
same,clinical symptoms during the IV study,"[3]; intravenous 5 mg/kg, CD-1 mice",no abnormal clinical symptoms
same,clinical symptoms after oral dosing,"[3]; oral 20 mg/kg, suspension 1% Tween 80:1% carboxymethylcellulose in water",No abnormal clinical symptoms
